Test results as given in patent US20250248965A1, “HEXAHYDRONAPHTHALEN-2-ONE DERIVATIVES FOR USE AGAINST A CORONAVIRUS INFECTION” (TÁMOGATOTT KUTATÓCSOPORTOK IRODÁJA, priority 2021, published 2025).

Columns and labels:
Format in all cases: cell-based
SARS-CoV-2 [1] = details: SARS-CoV-2 infected Vero E6 cells, 48 hours of incubation
[2] = Alamar Blue cell viability (cytotoxicity) assay; details: African green monkey, Vero E6 host cells
Method: (§1) Compounds to be tested were dissolved in DMSO at 20 mM concentration and stored at −20° C. Stock solutions were diluted with DMEM medium to result 100 μM concentration. The DMSO content was 0.5% in the highest concentration containing wells.
(§2) In vitro cytotoxicity testing of the compounds was performed by the Alamar Blue cell viability assay. Briefly, Vero E6 cells were plated in a 96-well flat bottom tissue culture plates in 10% FBS containing DMEM media (5000 cells/100 μL) one day prior to experiment. Before the test, 50 μL supernatant was removed and replaced with 50 μL DMEM serum free (SFM) medium. […] Two days after, 20 μL Alamar Blue (resazurin sodium salt, Merck) solution (0.15 mg/mL in PBS, filtered […] Merck) was added to each well and after 3-3.5 hrs of incubation the fluorescence was measured at λEx=530/30 and at λEM=610/10 nm using a Synergy H4 multi-mode microplate reader (BioTek). All measurements were performed in quadruplets and the mean IC50 values together with SEM were represented on the graphs.

SARS-CoV-2 [3] = assay: Viral copy number by RT-qPCR from supernatant; details: supernatant of infected Vero E6 cells
Vero E6 cells = assay: Alamar Blue cell viability (cytotoxicity) assay; details: 48 hrs
Method: as §1, §2

Compound: CC(C)=C1C[C@@]2(C)C(=CC1=O)CC[C@@H](O)[C@@H]2C [isopetasol, (4aR,5R,6R)-6-hydroxy-4a,5-dimethyl-3-propan-2-ylidene-5,6,7,8-tetrahydro-4H-naphthalen-2-one]
- antiviral effect (virus-induced CPE, TCID50/mL) (SARS-CoV-2 [1]): markedly different than petasol

Compound: CCN(CC)CCCC(C)Nc1ccnc2cc(Cl)ccc12 (stereo not drawn) [Chloroquine]
- IC50 at 48 h [2]: 34 µM

Compound: C=C(C)[C@H]1C[C@@]2(C)C(=CC1=O)CC[C@@H](O)[C@@H]2C [neopetasol, (3R,4aR,5R,6R)-6-hydroxy-4a,5-dimethyl-3-prop-1-en-2-yl-3,4,5,6,7,8-hexahydronaphthalen-2-one]
- antiviral effect (virus-induced CPE, TCID50/mL) (SARS-CoV-2 [1]): markedly different than petasol

Compound: C=C(C)[C@@H]1C[C@@]2(C)C(=CC1=O)CC[C@@H](O)[C@@H]2C [Petasol, (3S,4aR,5R,6R)-6-hydroxy-4a,5-dimethyl-3-prop-1-en-2-yl-3,4,5,6,7,8-hexahydronaphthalen-2-one]
- viral RNA copy numbers (antiviral effect) (SARS-CoV-2 [3]): high similarity with the TCID50 values
- in vitro cytotoxicity (not cytotoxic up to) (Vero E6 cells; Vero E6 host cells): > 100 µM

Compound: CC(=O)Oc1ccccc1C(=O)Nc1ncc([N+](=O)[O-])s1 [Nitazoxanide]
- toxicity on the host cells (Vero E6 cells; range up to 100 μM): around 35%
